# Laboratory results from US3981982A, “Radioimmunoassay for determining the digoxin content of a sample” (Abbott Laboratories, priority 1974, dated 1976).
# Several values for one entry are separate records, joined by “and”; a condition that tells them apart may be missing. Identical values can stand only once.
# Key:
# [1] = digoxin level; suggested by H. M. Part et al., J. of NUCL. Med. 1973; cited from earlier work
# [2] = usually; background statement; cited from earlier work
# digoxin antibody [3] = assay: Reproducibility of percent bound, two technicians (Table II); assay type: binding, rabbits
# Method: (§1) The tubes are shaken to mix the reagents therein.
# Table II illustrates the accuracy, precision and reproducibilty of the method of the present invention.
# Replicates of 2 Panel Samples were assayed by two technicians in the
# laboratory. Fifteen replicate samples were used.
# digoxin antibody [4] = assay: Competitive radioimmunoassay with I^125 digoxin tyramine analog, polyethylene glycol separation: percent bound (Table I); assay type: binding, rabbits; settings: for Percent Bound: single tube
# Description: Described is a competitive radioimmunoassay in which non-radioactive digoxin in a serum sample competes with a constant amount of I^125 digoxin tyramine analog for binding cites on a limited amount of digoxin antibody. The percentage or portion of the radioactivity labeled digoxin which is bound to the antibody is inversely proportional to the concentration of digoxin in the serum sample. The antibody bound digoxin, both radioactive and non-radioactive is separated from unbound digoxin and the radioactivity of the complex is measured with a well-type gamma scintillation counter. The concentration of digoxin in the serum is determined by comparison with standards containing measured amounts of unlabeled digoxin. The use of I^125 digoxin tyramine analog simplifies the procedure, obviating the need for liquid scintillation counting fluid which must be used with ^3 H-digoxin.
# In the radioimmunoassay of the present invention, the use of polyethylene glycol is preferred to separate the bound, labeled digoxin tyramine analog from the free digoxin although ethanol or ammonium sulfate can be used. After incubation of the antigen and antibody, a predetermined amount of polyethylene glycol is added and the mixture is agitated. Subsequently, the antibody-bound digoxin is precipitated and separated by centrifugation. The radioactivity remaining in the precipitate is measured to determine the amount of I^125 digoxin tyramine analog which is bound to the antibody. This amount will be inversely proportional with the quantity of nonlabeled antigen present in the serum sample.
# The radioimmunoassay of the present invention measures digoxin in the serum sample. The digoxin in a serum sample competes with a constant amount of a radioactively labeled digoxin tyramine analog for binding cites on a limited amount of digoxin antibody. The digoxin tyramine analog comprises 3-0-(4-Hydroxyphenethylcarbamoyl) digoxigenin prepared as hereinafter described. The digoxin tyramine analog is labeled with a radioactive isotope, employing conventional procedures. Iodine-I^125 is preferred as the labeling agent because of its advantageous half life but other radionuclides such as iodine^131, phosphorus^32 and tritium can also be used to radioactively label the reagent. The use of this tracer simplifies the procedure, obviating the need for liquid scintillation counting fluid which must be used with prior tracers such as ^3 H-digoxin.
# 1. I^125 -digoxin tyramine analog solution in an alcohol-phosphate saline buffer and having a radioactivity level of approximately 1 microcurie per vial.
# 2. Digoxin standards for preparation of a standard curve and comprising five vials containing 0.0, 0.5, 1.0, 2.0 and 4.0 nanograms per milliliter digoxin in normal human serum. 0.2% sodium azide is used as a preservative.
# 3. Digoxin antiserum obtained from rabbits in phosphate-saline buffer containing 0.1% […] serum albumin. 0.2% sodium azide is used as a preservative.
# 4. Polyethylene glycol, 18% solution in 0.09M barbital buffer.
# The test procedure is conducted as follows.
# b. Tubes 3 through 12 containing known amounts of digoxin are used to prepare the standard curve. Tubes 3 and 4, 0.0 nanograms per milliliter digoxin. Tubes 5 and 6, 0.5 nanograms per milliliter digoxin. Tubes 7 and 8, 1.0 nanograms per milliliter digoxin. Tubes 9 and 10, 2.0 nanograms per milliliter digoxin. Tubes 11 and 12, 4.0 nanograms per milliliter digoxin.
# as §1
# The points are connected with straight lines to construct the curve.
structure (smiles),measurement,setting,value
C[C@H]1O[C@@H](O[C@H]2[C@@H](O)C[C@H](O[C@H]3[C@@H](O)C[C@H](O[C@H]4CC[C@@]5(C)[C@H](CC[C@@H]6[C@@H]5C[C@@H](O)[C@]5(C)[C@@H](C7=CC(=O)OC7)CC[C@]65O)C4)O[C@@H]3C)O[C@@H]2C)C[C@H](O)[C@@H]1O [digoxin],approximate toxic threshold,[1],~2 ng/mL
same,amounts of digoxin in serum,[2],less than five
C[C@]12CC[C@H](OC(=O)NCCc3ccc(O)c([125I])c3)C[C@H]1CC[C@@H]1[C@@H]2C[C@@H](O)[C@]2(C)[C@@H](C3=CC(=O)OC3)CC[C@]12O [I^125 digoxin tyramine analog],% Bound,"digoxin antibody [3]; Panel Sample 1, Technician I, fifteen replicates",44.1%
same,% Bound,"digoxin antibody [3]; Panel Sample 1, Technician II, fifteen replicates",43.6%
same,% Bound,"digoxin antibody [3]; Panel Sample 2, Technician I, only 14 replicates",21.5%
same,% Bound,"digoxin antibody [3]; Panel Sample 2, Technician II, fifteen replicates",20.1%
same,Average % Bound,"digoxin antibody [4]; digoxin standard 0.0 ng/ml, mean of duplicate tubes 3, 4",59.7%
same,Percent Bound,digoxin antibody [4]; digoxin standard 0.0 ng/ml,59.2% and 60.2%
same,Average % Bound,"digoxin antibody [4]; digoxin standard 0.5 ng/ml, mean of duplicate tubes 5, 6",52.9%
same,Percent Bound,digoxin antibody [4]; digoxin standard 0.5 ng/ml,53.8% and 52.1%
same,Average % Bound,"digoxin antibody [4]; digoxin standard 1.0 ng/ml, mean of duplicate tubes 7, 8",41.5%
same,Percent Bound,digoxin antibody [4]; digoxin standard 1.0 ng/ml,41.5%
same,Average % Bound,"digoxin antibody [4]; digoxin standard 2.0 ng/ml, mean of duplicate tubes 9, 10",22.9%
same,Percent Bound,digoxin antibody [4]; digoxin standard 2.0 ng/ml,22.5% and 23.4%
same,Average % Bound,"digoxin antibody [4]; digoxin standard 4.0 ng/ml, mean of duplicate tubes 11, 12",12.9%
same,Percent Bound,digoxin antibody [4]; digoxin standard 4.0 ng/ml,12.8% and 12.9%
same,Average % Bound,"digoxin antibody [4]; unknown serum sample No. 14, mean of duplicates",17.7%
same,Percent Bound,digoxin antibody [4]; unknown serum sample No. 14,17.5% and 17.9%
same,Average % Bound,"digoxin antibody [4]; unknown serum sample No. 15, mean of duplicates",64.1%
same,Percent Bound,digoxin antibody [4]; unknown serum sample No. 15,63.3% and 65.0%
same,Average % Bound,"digoxin antibody [4]; unknown serum sample No. 16, mean of duplicates",25.3%
same,Percent Bound,digoxin antibody [4]; unknown serum sample No. 16,25.1% and 25.5%
same,Average % Bound,"digoxin antibody [4]; unknown serum sample No. 17, mean of duplicates",49.6%
same,Percent Bound,digoxin antibody [4]; unknown serum sample No. 17,50.8% and 48.5%
same,Average % Bound,"digoxin antibody [4]; unknown serum sample No. 18, mean of duplicates",24.4%
same,Percent Bound,digoxin antibody [4]; unknown serum sample No. 18,24.5% and 24.3%
